Experimental findings from PubChem BioAssay (NCI) are described below.

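Step 1: Grow cells in 96-well plates. Step 2: Expose to compound for 48 hours at 5 concentrations. Step 3: Interpolate endpoints linearly; if unreached, use highest concentration. TGI is the concentration that stops growth completely.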

Assay in all cases: growth of human tumour cells (NCI), 48 h
Experiment [1] relates to RPMI-8226 leukemia.
The subject of experiment [2] is HCT-116 colon.
Experiment [3] deals with SW-620 colon.
For experiment [4], the system named is A498 renal.
Experiment [5] relates to SK-MEL-2 melanoma.
Experiment [6] relates to A549 NSCLC.
Experiment [7] relates to HT29 colon.
The test system of experiment [8] is TK-10 renal.
Experiment [9] concerns M14 melanoma.
In experiment [10] the test system is LOX IMVI melanoma.
Experiment [11] relates to SF-539 CNS.
Experiment [12] has as its system RXF 393 renal.
Experiment [13] has as its system UACC-257 melanoma.

In the case of `[O-][N+]1=C(c2ccccc2)/C(=C2/C(c3ccccc3)=[N+]([O-])c3ccccc32)Cc2ccccc21`, the TGI in [1] is 52 µM; in experiment [2], 31.4 µM; in experiment [3], 59.2 µM; in experiment [4], 21.1 µM; in [5] it was 36.6 µM; in experiment [6], 35.2 µM. Also, the TGI amounted to 35.9 µM in [7]; 49.2 µM in experiment [8]; 53.7 µM in experiment [9]; 34.5 µM in [10]; 56.4 µM in experiment [11]; 53.1 µM in [12]. Also, the TGI in experiment [13] came out at 40.9 µM.

Consider `O=C(OCC1CC(C2(O)CCCCC2)C(=O)O1)c1ccccc1` (stereo not given), for which the TGI in [1], in [2], in experiment [3], in experiment [4], in experiment [5] and in [6] was more than 100 µM in each case. The TGI in experiment [7], in [8], in [9], in experiment [10], in [11] and in experiment [12] was more than 100 µM in each case. In experiment [13], this molecule gave a TGI of more than 100 µM.

On to `Cc1cc(N(CCC#N)CCC#N)ccc1/C=C(\N=[N+]=[N-])C(=O)NC(=O)COc1ccccc1`, for which the TGI in [1], in experiment [2], in experiment [3], in experiment [4], in experiment [5] and in [6] was more than 100 µM in each case. For the same molecule, the TGI was more than 100 µM in experiment [7]; more than 100 µM in experiment [8]; more than 100 µM in experiment [9]; more than 100 µM in [10]; more than 100 µM in experiment [11]; 97.5 µM in experiment [12]. Also, the TGI in experiment [13] was more than 100 µM.

For `O=[N+]([O-])c1ccc(C2NC(=S)NC3c4cc([N+](=O)[O-])ccc4CCCC23)cc1` (stereo not given), the TGI in experiment [1], in [2], in [3], in [4], in [5] and in experiment [6] was more than 100 µM throughout. The TGI was more than 100 µM in [7]; more than 100 µM in experiment [8]; more than 100 µM in [9]; more than 100 µM in [10]; more than 100 µM in experiment [11]; 45.2 µM in experiment [12]. Moreover, the TGI in experiment [13] is more than 100 µM.

Regarding `CC(C)C1CCC(=O)CC1CCCCC1CC(=O)CC1O[Si](C)(C)C(C)(C)C` (stereo not given), the TGI in experiment [1] was 5.6 µM; in experiment [2], 15.3 µM; in experiment [3], more than 26.5 µM; in [4], 27.1 µM; in experiment [5] it was 24.5 µM; in [6], 32.9 µM. The TGI in experiment [7] amounted to 10.3 µM; in [8] it was 23.4 µM; in experiment [9], 43.4 µM; in experiment [10], 9.28 µM; in experiment [11], 24.8 µM; in experiment [12], 27.8 µM. The TGI in experiment [13] was 21.7 µM.

As for `CCOC(=O)C1=C(C)C2C3C(=O)OC(=O)C3C1(C)C1C(=O)OC(=O)C21` (stereo not given), the TGI in experiment [1], in [2], in experiment [3], in experiment [4], in experiment [5] and in experiment [6] was more than 100 µM in each case. In addition, the TGI in [7], in [8], in experiment [9], in experiment [10], in [11] and in experiment [12] was more than 100 µM each time. The TGI in experiment [13] is more than 100 µM.

Turning to `N#CCCN(c1ccc(C=Nc2ccc(C(=O)O)cc2)cc1)S(=O)(=O)c1ccccc1`, the TGI in experiment [1], in experiment [2], in experiment [3], in experiment [4], in experiment [5] and in experiment [6] was more than 100 µM throughout. The TGI in experiment [7], in experiment [8], in [9], in [10], in experiment [11] and in experiment [12] was more than 100 µM each time. Also, in [13], the TGI is more than 100 µM.

For the molecule `COc1cc2c(c(OC)c1)C(=O)C(=O)C(CC1(C)OCCCO1)=C2`, the TGI in [1] is more than 100 µM; in experiment [2] it was 10.3 µM; in experiment [3] it was 3.23 µM; in [4], 31.3 µM; in experiment [5], 30.3 µM; in experiment [6] it was 28.3 µM. In addition, the TGI is 35 µM in experiment [7]; 17.2 µM in [8]; 24.3 µM in experiment [9]; 12.9 µM in [10]; 32 µM in [11]; 8.71 µM in experiment [12]. The molecule also returned a TGI in [13] of 27.4 µM.

`Cc1ccc(/C=C2\CCS(=O)(=O)c3ccccc3C2=O)cc1`: the TGI is more than 100 µM in experiment [1]; 26.1 µM in [2]; 47.9 µM in experiment [3]; 36.5 µM in experiment [4]; 44 µM in [5]; more than 100 µM in [6]. The TGI is 31.9 µM in experiment [7]; 30.9 µM in [8]; 73.6 µM in experiment [9]; 30.8 µM in experiment [10]; more than 100 µM in experiment [11]; 44.2 µM in [12]. The molecule also came in with a TGI in experiment [13] of 35.1 µM.

On to `COc1cccc(C2c3cc4c(cc3OC(NNC(N)=O)C2C)OCO4)c1OC` (stereo not given), for which the TGI in [1] was 46.1 µM; in [2], 27.6 µM; in [3], more than 100 µM; in [4], 51.1 µM; in [5], 52.1 µM; in [6], 56 µM. The TGI in experiment [7] was 62.3 µM; in [8] it was 86.3 µM; in experiment [9] it was 40.6 µM; in [10], 45.6 µM; in experiment [11] it was 37.5 µM; in experiment [12] it was 49.9 µM. In experiment [13], this molecule yielded a TGI of 92.1 µM.

Turning to `O=C(N/N=C\c1ccc(Cl)cc1)Nc1cccc2ccccc12`, the TGI in [1] was more than 100 µM; in [2] it was more than 23.2 µM; in [3] it was more than 76.6 µM; in [4], 7.13 µM; in experiment [5], more than 100 µM; in experiment [6] it was 27 µM. In addition, the TGI in experiment [7] is more than 100 µM; in experiment [8], 17 µM; in [9] it was more than 100 µM; in experiment [10] it was more than 100 µM; in experiment [11], 35.7 µM; in experiment [12], 9.99 µM. The molecule also had a TGI in [13] of more than 100 µM.

Consider `CCOC(=O)C(C(=O)OCC)S(C)(=O)=O`, for which the TGI in experiment [1], in experiment [2], in experiment [3], in experiment [4], in [5] and in experiment [6] was more than 100 µM in each case. The TGI in experiment [7], in experiment [8], in experiment [9], in experiment [10], in experiment [11] and in [12] was more than 100 µM throughout. Further, in experiment [13], the TGI was more than 100 µM.

As to `Cc1cc(S(=O)(=O)Nc2nnc3c(Cl)cc(C(F)(F)F)cn23)c(S)cc1Cl`, the TGI in [1], in experiment [2], in experiment [3], in [4], in [5] and in experiment [6] was more than 100 µM throughout. Moreover, the TGI in experiment [7], in experiment [8], in [9], in experiment [10], in experiment [11] and in experiment [12] was more than 100 µM throughout. Also, the TGI in [13] was more than 100 µM.

Turning to `CCCCCCc1cc2cc(-c3cn4ccccc4n3)c(=O)oc2cc1O`, the TGI is 18.4 µM in [1]; 16.9 µM in experiment [2]; more than 53.6 µM in [3]; 50.7 µM in experiment [4]; 28.5 µM in experiment [5]; 31.2 µM in [6]. The TGI in experiment [7] is more than 100 µM; in [8], 30.1 µM; in experiment [9] it was 16.1 µM; in [10] it was more than 36.9 µM; in [11], 7.19 µM; in experiment [12] it was 15.1 µM. For the same molecule, the TGI in experiment [13] came out at 50.9 µM.

On to `CC(=O)c1sc2c(c1OC(=O)c1ccccc1)c(=O)n(-c1ccccc1)c(=S)n2-c1ccccc1`, for which the TGI in experiment [1] was 7.32 µM; in [2] it was 34.2 µM; in experiment [3], more than 82.6 µM; in [4] it was 7.87 µM; in experiment [5], 7.88 µM; in [6], more than 100 µM. In addition, the TGI is 12.9 µM in experiment [7]; more than 86.9 µM in experiment [8]; 14.3 µM in [9]; 5.26 µM in experiment [10]; 5.65 µM in experiment [11]; 7.21 µM in experiment [12]. Besides, the TGI in [13] is more than 23.9 µM.
